The record followed here is PubChem BioAssay AID330 (DTP/NCI, 2004).

The test system of the experiment is P388 leukemia ip, CD2F1 mice, survival T/C. Briefly: NCI In Vivo Anticancer Drug Screen. Data for tumor model P388 Leukemia (intraperitoneal) in CD2F1 (CDF1) mice. The note with it: endpoint: median survival time, higher = longer survival. The method, boiled down: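 Mice carrying the transplanted tumor received test compound or vehicle. Survival was recorded in each group, and the value is the treated-group measurement divided by that of the vehicle-treated control group.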

The mark [1] stands for this setting: dose: 25.0 mg/kg/injection, schedule: Q04DX003 (ip), vehicle: saline with Tween-80.
The mark [2] stands for this setting: dose: 100.0 mg/kg/injection, schedule: Q04DX003 (ip), vehicle: saline with Tween-80.
Where [3] appears, read: dose: 60.0 mg/kg/injection, schedule: Q01DX005 (ip), vehicle: saline with Tween-80.
[4] abbreviates: dose: 120.0 mg/kg/injection, schedule: Q01DX005 (ip), vehicle: saline with Tween-80.
Setting [5] is: dose: 240.0 mg/kg/injection, schedule: Q01DX005 (ip), vehicle: saline with Tween-80.
[6] abbreviates: dose: 50.0 mg/kg/injection, schedule: Q01DX009 (ip), vehicle: saline with Tween-80.
Setting [7] is: dose: 100.0 mg/kg/injection, schedule: Q01DX009 (ip), vehicle: saline with Tween-80.
Setting [8] is: dose: 200.0 mg/kg/injection, schedule: Q01DX009 (ip), vehicle: saline with Tween-80.
Where [9] appears, read: dose: 12.5 mg/kg/injection, schedule: Q01DX009 (ip), vehicle: saline with Tween-80.
Setting [10] is: dose: 25.0 mg/kg/injection, schedule: Q01DX009 (ip), vehicle: saline with Tween-80.
Where [11] appears, read: dose: 50.0 mg/kg/injection, schedule: Q01DX009 (ip), vehicle: Klucel (hydroxypropylcellulose) (HPC).
[12] abbreviates: dose: 100.0 mg/kg/injection, schedule: Q01DX009 (ip), vehicle: Klucel (hydroxypropylcellulose) (HPC).
Where [13] appears, read: dose: 50.0 mg/kg/injection, schedule: Q01DX005 (ip), vehicle: saline with Tween-80.
Where [14] appears, read: dose: 100.0 mg/kg/injection, schedule: Q01DX005 (ip), vehicle: saline with Tween-80.
Where [15] appears, read: dose: 200.0 mg/kg/injection, schedule: Q01DX005 (ip), vehicle: saline with Tween-80.
Setting [16] is: dose: 6.25 mg/kg/injection, schedule: Q04DX003 (ip), vehicle: saline with Tween-80.
The mark [17] stands for this setting: dose: 12.5 mg/kg/injection, schedule: Q04DX003 (ip), vehicle: saline with Tween-80.

Structures are written as SMILES. Where “and” joins values, the source holds several entries; their conditions need not be identical. Equal values may be shown once. Inconclusive results and toxic doses are left out.

For `C=CCNS(=O)(=O)c1ccccc1`, the T/C was 102 % of control under setting [1]; 107 % of control (dose: 50.0 mg/kg/injection, schedule: Q04DX003 (ip), vehicle: saline with Tween-80); 94 % of control under setting [2]; 107 % of control (dose: 200.0 mg/kg/injection, schedule: Q04DX003 (ip), vehicle: saline with Tween-80); 107 % of control (dose: 400.0 mg/kg/injection, schedule: Q04DX003 (ip), vehicle: saline with Tween-80).

Take `CCOC=C=CCOCC`: the T/C reads like this: (dose: 60.0 mg/kg/injection, schedule: Q01DX005 (ip), vehicle: saline) 100 % of control; (dose: 120.0 mg/kg/injection, schedule: Q01DX005 (ip), vehicle: saline) 96 % of control; (dose: 240.0 mg/kg/injection, schedule: Q01DX005 (ip), vehicle: saline) 96 % of control.

Regarding `O=C(/C=C/c1cn(C(=O)CCCl)c2ccccc12)c1cccc([N+](=O)[O-])c1`, the T/C reads like this: under setting [3], 99 % of control; under setting [4], 96 % of control; under setting [5], 89 % of control.

Turning to `CC1(c2ccc3c(c2)OCO3)OC(CCl)CS1` (stereo not given), the T/C by setting is: under setting [6], 101 % of control; under setting [7], 101 % of control; under setting [8], 101 % of control.

Turning to `C(=NCCN=CC1CCCC[N-]1)C1CCCC[N-]1.[Cu+2].[O-][Cl+3]([O-])([O-])O` (stereo not given), the T/C under setting [9] was 115 % of control and the T/C under setting [10] is 98 % of control.

Regarding `CCOC(=O)N1C2CCC1C(C)C(=O)C2` (stereo not given), the T/C by setting is: (dose: 50.0 mg/kg/injection, schedule: Q01DX005 (ip), vehicle: saline) 96 % of control; (dose: 100.0 mg/kg/injection, schedule: Q01DX005 (ip), vehicle: saline) 96 % of control and 104 % of control; (dose: 200.0 mg/kg/injection, schedule: Q01DX005 (ip), vehicle: saline) 94 % of control.

Regarding `CC(C)(O)c1ccccc1Br`, the T/C under setting [11] was 98 % of control; the T/C under setting [12] was 99 % of control; the T/C (dose: 200.0 mg/kg/injection, schedule: Q01DX009 (ip), vehicle: Klucel (hydroxypropylcellulose) (HPC)) was 102 % of control.

As to `CCCCn1c2nc(=O)[nH]c(=O)c-2[n+]([O-])c2ccccc21`, the T/C by setting is: (dose: 25.0 mg/kg/injection, schedule: Q01DX001 (ip), vehicle: saline with Tween-80) 102 % of control; (dose: 50.0 mg/kg/injection, schedule: Q01DX001 (ip), vehicle: saline with Tween-80) 102 % of control.

For `Nc1c(I)cc(I)cc1C(=O)O`, the T/C runs as follows: under setting [11], 99 % of control and 101 % of control; under setting [12], 101 % of control and 114 % of control.

Regarding `Cc1ccc2[nH]c(=O)c(=O)[nH]c2c1`, the T/C by setting is: under setting [10], 119 % of control; under setting [6], 103 % of control; under setting [7], 105 % of control; under setting [8], 104 % of control.

For `CC(=NC1CCCCC1)c1c(O)oc(C=Nc2ccccc2)c1O`, the T/C was 100 % of control under setting [13], 105 % of control under setting [14] and 100 % of control under setting [15].

Regarding `O=P(c1ccccc1)(N1CC1)N1CC1`, the T/C (dose: 15.0 mg/kg/injection, schedule: Q04DX003 (ip), vehicle: saline) was 118 % of control and the T/C (dose: 30.0 mg/kg/injection, schedule: Q04DX003 (ip), vehicle: saline) was 122 % of control.

As to `CC(=O)OC1C=CCC2C(=O)c3cccc(O)c3C(=O)C12` (stereo not given), the T/C is, setting by setting: (dose: 60.0 mg/kg/injection, schedule: Q01DX005 (ip), vehicle: Klucel (hydroxypropylcellulose) (HPC)) 107 % of control; (dose: 120.0 mg/kg/injection, schedule: Q01DX005 (ip), vehicle: Klucel (hydroxypropylcellulose) (HPC)) 105 % of control; (dose: 240.0 mg/kg/injection, schedule: Q01DX005 (ip), vehicle: Klucel (hydroxypropylcellulose) (HPC)) 97 % of control.

For `COC(=O)CC1(O)C(=O)OCc2c1cc1n(c2=O)Cc2c-1nc1ccccc1c2OC` (stereo not given), the T/C is 167 % of control (dose: 12.5 mg/kg/injection, schedule: Q01DX009 (ip), vehicle: saline); 194 % of control (dose: 50.0 mg/kg/injection, schedule: Q01DX009 (ip), vehicle: saline); 150 % of control and 184 % of control (dose: 100.0 mg/kg/injection, schedule: Q01DX009 (ip), vehicle: saline); 86 % of control (dose: 100.0 mg/kg/injection, schedule: Q01DX009 (ip), vehicle: suspension in saline).

Take `CCc1ccc([O-])c(C=NCCCN(C)CCCN=Cc2cc(C)ccc2[O-])c1.[Co+3].[N-]=[N+]=[N-]`: the T/C is 88 % of control under setting [3], 91 % of control under setting [4] and 101 % of control under setting [5].

Take `O=C1OCc2cc3c(cc2-c2ccccc21)OCO3`: the T/C runs as follows: (dose: 100.0 mg/kg/injection, schedule: Q04DX002 (ip), vehicle: saline with Tween-80) 95 % of control; (dose: 200.0 mg/kg/injection, schedule: Q04DX002 (ip), vehicle: saline with Tween-80) 101 % of control; (dose: 400.0 mg/kg/injection, schedule: Q04DX002 (ip), vehicle: saline with Tween-80) 91 % of control.

`CCOC(=O)/N=[N+](\[O-])c1ccccc1`: the T/C (dose: 0.2 mg/kg/injection, schedule: Q01DX009 (ip), vehicle: saline with Tween-80) was 103 % of control; the T/C (dose: 0.39 mg/kg/injection, schedule: Q01DX009 (ip), vehicle: saline with Tween-80) is 103 % of control; the T/C (dose: 0.78 mg/kg/injection, schedule: Q01DX009 (ip), vehicle: saline with Tween-80) is 106 % of control and 95 % of control; the T/C (dose: 1.56 mg/kg/injection, schedule: Q01DX009 (ip), vehicle: saline with Tween-80) was 109 % of control and 95 % of control; the T/C (dose: 3.12 mg/kg/injection, schedule: Q01DX009 (ip), vehicle: saline with Tween-80) was 103 % of control and 123 % of control; the T/C (dose: 3.12 mg/kg/injection, schedule: Q04DX003 (ip), vehicle: saline with Tween-80) was 112 % of control and 115 % of control. Moreover, the T/C by setting is: (dose: 6.25 mg/kg/injection, schedule: Q01DX009 (ip), vehicle: saline with Tween-80) 107 % of control and 115 % of control; under setting [16], 99 % of control and 110 % of control; under setting [9], 115 % of control; under setting [17], 112 % of control and 117 % of control and 123 % of control; under setting [1], 110 % of control.

Take `COC(=O)/C=C(\NC1CC(OC2C[C@](O)(C(C)=O)Cc3c(O)c4c(c(O)c32)C(=O)c2c(OC)cccc2C4=O)OC(C)C1O)C(=O)OC` (stereo not given in full): the T/C under setting [16] is 104 % of control; the T/C under setting [17] is 105 % of control and 115 % of control; the T/C under setting [1] was 121 % of control; the T/C under setting [2] was 121 % of control.

Take `CCCc1c(C(=O)O)c(-c2cccc3ccccc23)c(CCC)c2c1-c1cccc3cccc-2c13`: the T/C is, setting by setting: under setting [6], 105 % of control; under setting [7], 102 % of control; under setting [8], 100 % of control.

On to `C=CC(=O)NN=C(c1ccccc1)c1ccccc1`, for which the T/C by setting is: (dose: 42.0 mg/kg/injection, schedule: Q01DX009 (ip), vehicle: saline with Tween-80) 98 % of control; (dose: 84.0 mg/kg/injection, schedule: Q01DX009 (ip), vehicle: saline with Tween-80) 103 % of control; (dose: 168.0 mg/kg/injection, schedule: Q01DX009 (ip), vehicle: saline with Tween-80) 100 % of control.

As for `C#CCSc1nc2ccccc2s1`, the T/C under setting [11] was 98 % of control and the T/C under setting [12] is 109 % of control.

Regarding `COC(=O)C(CC(C)C)NC(=O)C(Cc1ccc(O)cc1)N(C(=O)OCc1ccccc1)C(=O)OCc1ccccc1` (stereo not given), the T/C is 103 % of control under setting [13], 94 % of control under setting [14] and 92 % of control under setting [15].

On to `CC1CCCN(c2cc(N(C)C)c([N+](=O)[O-])cc2F)C1` (stereo not given), for which the T/C is, setting by setting: (dose: 50.0 mg/kg/injection, schedule: Q01DX005 (ip), vehicle: Klucel (hydroxypropylcellulose) (HPC)) 99 % of control; (dose: 100.0 mg/kg/injection, schedule: Q01DX005 (ip), vehicle: Klucel (hydroxypropylcellulose) (HPC)) 107 % of control; (dose: 200.0 mg/kg/injection, schedule: Q01DX005 (ip), vehicle: Klucel (hydroxypropylcellulose) (HPC)) 105 % of control.

For the compound `COc1ccc(C(C)c2cc(N=O)c(OC)cc2O)cc1` (stereo not given), the T/C is 91 % of control (dose: 12.5 mg/kg/injection, schedule: Q01DX005 (ip), vehicle: saline with Tween-80); 94 % of control (dose: 25.0 mg/kg/injection, schedule: Q01DX005 (ip), vehicle: saline with Tween-80); 92 % of control and 96 % of control under setting [13].
